# Results published in ChEMBL document CHEMBL1139603, “Synthesis and structure-activity relationship of 3-phenyl-3H-quinazolin-4-one derivatives as CXCR3 chemokine receptor antagonists” (Bioorg Med Chem Lett, 2005).
# Target: T1, C-X-C chemokine receptor type 3 (Homo sapiens, UniProt P49682)
# T1 sequence (P49682 whole entry): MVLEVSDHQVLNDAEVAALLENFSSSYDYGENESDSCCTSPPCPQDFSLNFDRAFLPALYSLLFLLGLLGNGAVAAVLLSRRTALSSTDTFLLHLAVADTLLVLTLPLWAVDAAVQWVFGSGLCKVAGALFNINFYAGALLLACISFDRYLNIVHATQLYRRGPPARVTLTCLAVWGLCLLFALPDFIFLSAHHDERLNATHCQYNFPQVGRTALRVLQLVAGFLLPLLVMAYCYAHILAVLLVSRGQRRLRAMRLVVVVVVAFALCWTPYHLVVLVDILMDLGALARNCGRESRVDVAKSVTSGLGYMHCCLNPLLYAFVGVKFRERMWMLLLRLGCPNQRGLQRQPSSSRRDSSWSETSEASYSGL
# Test: Inhibitory concentration against […] expressed in human HEK293 cells using [125I]CXCL10 as radioligand
# Type: cell-based
row,Structure (SMILES),IC50 [µM]
1,CCCCCCCCCC(=O)N(CCN(C)C)C(C)c1nc2ccccc2c(=O)n1-c1ccc(C)cc1 (centres undefined),3.1
2,CCCCCCCCCC(=O)N(CCN(C)C)C(C)c1nc2ccccc2c(=O)n1-c1ccc(F)cc1 (centres undefined),3.2
3,CCCCCCCCCC(=O)N(CCN(C)C)C(C)c1nc2ccccc2c(=O)n1-c1ccccc1 (centres undefined),15
4,CCCCCCCCCC(=O)N(CCN(C)C)C(C)c1nc2ccccc2c(=O)n1-c1ccc(C#N)cc1 (centres undefined),0.93
5,CCCCCCCCCC(=O)N(CCN(C)C)C(C)c1nc2ccccc2c(=O)n1-c1cccc(C#N)c1 (centres undefined),5.8
6,CCCCCCCCCC(=O)N(CCN(C)C)C(C)c1nc2ccccc2c(=O)n1-c1ccccc1C#N (centres undefined),10
7,CCCCCCCCCC(=O)N(CCN(C)C)C(C)c1nc2ccccc2c(=O)n1-c1ccc(O)cc1 (centres undefined),> 100
8,CCCCCCCCCC(=O)N(CCN(C)C)C(C)c1nc2ccccc2c(=O)n1-c1ccc(C(F)(F)F)cc1 (centres undefined),> 100
9,CCCCCCCCCC(=O)N(CCN(C)C)C(C)c1nc2ccccc2c(=O)n1-c1ccc(OC)cc1 (centres undefined),3.3
